Measured values from US5196437A, “Method for treating hepatic diseases and regenerating liver tissue using FK 506 and related compounds” (Fujisawa Pharmaceutical Company, Ltd., priority 1990, dated 1993).

Tests used:
[1] = test system: hepatocytes / rat liver regeneration; test: Rat liver regeneration (3H-thymidine incorporation into hepatic DNA and hepatocyte mitosis) after sham operation or 40%/70% hepatectomy; format: in vivo, rat (Fisher 344); conditions: for 3H-thymidine incorporation / Proportion of hepatocytes in mitosis: 4 days, mean (SE)
Procedure: Adult male inbred Fisher 344 rats weighing 180-200 g were purchased from Hilltop Lab Animals Inc (Scottdale, Pa.). The animals were given standard rat laboratory diet and water ad libitum in a temperature and light controlled room (light 0730-1930). […] Animals in groups 3 and 4 had sham operations in which the liver was manipulated at laparotomy. Food and drink were allowed immediately. Parenteral fluid and electrolyte support were not required.
24 h after the hepatectomies, 185×10^4 Bq ^3 H-thymidine was administered to all rats by intraperitoneal injection. The rats, including groups 1 and 2, were killed 2 h later by guillotine. Extraction and purification of hepatic DNA were done with the method of Ove et al (Liver and hormones, New York: Raven Press, 1987:265-76) and DNA content was measured with calf thymus DMA (Sigma) as standard. Specimens from each liver were prepared for histological examination with hematoxylin and eosin and the proportion of hepatocytes in mitosis was counted. All results are means and SE.

hepatocytes = test: Eck fistula dogs, left portal vein infusion: hepatocyte size and 3H-thymidine labelled hepatocytes; format: in vivo, dog (beagle); conditions: for Labeled Hepatocytes/1000 Hepatocytes, Left / Hepatocytes Size Units, Left: left (infused) lobe; for Labeled Hepatocytes/1000 Hepatocytes, Left / Hepatocytes Size Units, Left / Hepatocytes Size Units, Right / Labeled Hepatocytes/1000 Hepatocytes, Right: mean +/- SD; for Hepatocytes Size Units, Right / Labeled Hepatocytes/1000 Hepatocytes, Right: right lobe
Procedure: (§1) Twenty adult female beagle dogs underwent Eck fistula (Starzl et al, Lancet, 1976, 1:821-25). After performing a large side to side portacaval shunt, the left and right portal vein branches were ligated. A small infusion catheter was tied into the left branch and led through the abdominal wall and subcutaneously to a battery charged infusion pump that was incorporated into a non-restraining body cast. A constant infusion was started of the control or test fluids at the volume of 20 to 30 ml/day. Oral fluids and diet were allowed ad lib. Four days later, the animals were administered 0.2 mCi/kg (CH3 -^3 H)-thymidine with specific activity of 80-90 Ci/MMol (New England Nuclear, Boston). Two hours later, the dogs were anesthetized and killed.
Specimens were taken from 2 of the right hepatic lobes and 2 of the left lobes, fixed in 10% buffered formalin, and stained using standard hematoxylin-eosin staining techniques.
Autoradiography was carried out using Ilford K5 nuclear track liquid emulsion and an exposure time of at least 30 days. The number of mitoses, as an index of hepatocyte regeneration, was determined by counting the number of ^3 H-thymidine labelled nuclei per 1000 hepatocytes. […] In normal, unaltered dogs, about 1.6±0.4 mitosis per 1000 hepatocytes are present in the liver, and midzonal hepatocytes are about 0.17±0.01 size-units (Starzl et al, Lancet, 1979, 1:127-130). The exceptional reproducibility of these values and the small standard deviations make it easy to identify changes caused by operations such as Eck fistula, drugs, or other experimental variables.
(§2) Results are expressed as mean±standard deviation (SD). The Student's t-test was employed in individual experimental groups to compare differences between right and left lobes or between groups. A p value less than 0.05 was considered to be significant.

midzonal hepatocytes = test: Eck fistula dogs, left portal vein infusion: electron microscopy of hepatocyte organelles; format: in vivo, dog (beagle); conditions: 0.01 mg/kg/day, mean +/- SD
Procedure: as §1
For studies of the organelles, small cubes of each hepatic sample were taken for electron microscopy. The tissue was post-fixed in glutaraldehyde followed by osmic acid. After embedding in Polarbed. 812 resin, ultrathin sections were cut, stained with lead citrate and examined in a Philip's 300 electron microscope. Measurements of the organelles were made on electron micrographs by Loud's method (Loud, J Cell Biol, 1968, 37:27-46).
as §2

[2] = group 2: FK 506 1 mg/kg IM, no operation
[3] = group 10: FK 506 1 mg/kg IM, 70% hepatectomy, p < 0.01 vs group 8
[4] = infused into the left portal vein

C=CCC1C=C(C)CC(C)CC(OC)C2OC(O)(C(=O)C(=O)N3CCCCC3C(=O)OC(C(C)=CC3CCC(O)C(OC)C3)C(C)C(O)CC1=O)C(C)CC2OC (centres unmarked) [FK 506]
regeneration after hepatectomy compared with controls ([1]; 4 days pretreatment, intramuscular FK 506 or oral cyclosporin): significantly augmented compared with controls | hepatocyte mitosis and DNA synthesis in sham operation group ([1]; FK 506 added to sham operation): further and significantly increased | 3H-thymidine incorporation [1, 2]: 3.2 × 10^3 cpm/mg DNA | Proportion of hepatocytes in mitosis [1, 2]: 1.7% | 3H-thymidine incorporation ([1]; group 4: FK 506 1 mg/kg IM, sham operation, p < 0.005 vs groups 1, 2 and 3): 10.5 × 10^3 cpm/mg DNA | Proportion of hepatocytes in mitosis ([1]; group 4: FK 506 1 mg/kg IM, sham operation, p < 0.05 vs groups 1 and 2): 9.5% | 3H-thymidine incorporation ([1]; group 6: FK 506 1 mg/kg IM, 40% hepatectomy, p < 0.001 vs group 5): 32.4 × 10^3 cpm/mg DNA | 3H-thymidine incorporation [1, 3]: 242.0 × 10^3 cpm/mg DNA | Proportion of hepatocytes in mitosis [1, 3]: 59.0% | regeneration effect, FK 506 compared with cyclosporin ([1]; group 10 compared with group 9, 70% hepatectomy): greater with FK 506 than with cyclosporin | resting hepatocyte mitosis or DNA synthesis ([1]; unoperated rats): did not increase | Labeled Hepatocytes/1000 Hepatocytes, Left (hepatocytes; 0.01 mg/kg/day, p vs vehicle 0.0044, left vs right 0.0167): 5.43 +/- .35 Labeled Hepatocytes/1000 Hepat | Hepatocytes Size Units, Left (hepatocytes; 0.01 mg/kg/day, p vs vehicle 0.5782, left vs right 0.0004): .111 +/- .008 Size Units | Hepatocytes Size Units, Right (hepatocytes; 0.01 mg/kg/day, p vs vehicle 0.1860): .100 +/- .007 Size Units | Labeled Hepatocytes/1000 Hepatocytes, Right (hepatocytes; 0.01 mg/kg/day, p vs vehicle 0.2477): 4.77 +/- .60 Labeled Hepatocytes/1000 Hepat | Labeled Hepatocytes/1000 Hepatocytes, Left (hepatocytes; 0.1 mg/kg/day, p vs vehicle 0.0005, left vs right 0.0001): 5.98 +/- .43 Labeled Hepatocytes/1000 Hepat | Hepatocytes Size Units, Left (hepatocytes; 0.1 mg/kg/day, p vs vehicle 0.0065, left vs right 0.0000): .137 +/- .008 Size Units | Labeled Hepatocytes/1000 Hepatocytes, Right (hepatocytes; 0.1 mg/kg/day, p vs vehicle 0.0086): 5.19 +/- .38 Labeled Hepatocytes/1000 Hepat | Hepatocytes Size Units, Right (hepatocytes; 0.1 mg/kg/day, p vs vehicle 0.8351): .113 +/- .006 Size Units | Labeled Hepatocytes/1000 Hepatocytes, Left (hepatocytes; 1.0 mg/kg/day, p vs vehicle 0.0001, left vs right 0.0015): 9.13 +/- .89 Labeled Hepatocytes/1000 Hepat | Hepatocytes Size Units, Left (hepatocytes; 1.0 mg/kg/day, p vs vehicle 0.0004, left vs right 0.0009): .162 +/- .012 Size Units | Hepatocytes Size Units, Right (hepatocytes; 1.0 mg/kg/day, p vs vehicle 0.0503): .134 +/- .006 Size Units | Labeled Hepatocytes/1000 Hepatocytes, Right (hepatocytes; 1.0 mg/kg/day, p vs vehicle 0.0510): 5.37 +/- .78 Labeled Hepatocytes/1000 Hepat | changes in directly infused lobes compared with non-infused lobes (hepatocytes; all doses): significantly greater in the directly infused lobes at all doses | changes in non-infused lobes compared to vehicle controls (hepatocytes; high FK 506 doses): significantly effected compared to the vehicle controls | atrophy of the left lobar hepatocytes (hepatocytes; [4]): prevented in proportion to the dose | rate of mitoses (hepatocytes; [4]): increased | evidence of drug toxicity in infused lobes (hepatocytes; lobes infused with FK 506): no evidence of drug toxicity | Organelle volume in average midzonal hepatocytes, Lipids, Left (midzonal hepatocytes; left (infused) lobe, left vs right p 0.0012): 23.3 +/- 8.8 uM^3 | Organelle volume in average midzonal hepatocytes, Lysosomes, Left (midzonal hepatocytes; left (infused) lobe, left vs right p 0.0017): 62.3 +/- 15.1 uM^3 | Organelle volume in average midzonal hepatocytes, Microbodies, Left (midzonal hepatocytes; left (infused) lobe, left vs right p 0.0080): 99.2 +/- 11.8 uM^3 | Organelle volume in average midzonal hepatocytes, Mitochondria, Left (midzonal hepatocytes; left (infused) lobe, left vs right p 0.1903): 1233.7 +/- 222.4 uM^3 | Area of rough endoplasmic reticulum per average midzonal hepatocyte, Left (midzonal hepatocytes; left (infused) lobe, p vs vehicle 0.0000, left vs right 0.0001): 26332 +/- 1483 uM^2 | Area of smooth endoplasmic reticulum per average midzonal hepatocyte, Left (midzonal hepatocytes; left (infused) lobe, p vs vehicle 0.0661, left vs right 0.0000): 18433 +/- 535 uM^2 | Organelle volume in average midzonal hepatocytes, Lipids, Right (midzonal hepatocytes; right lobe): 81.0 +/- 15.1 uM^3 | Organelle volume in average midzonal hepatocytes, Lysosomes, Right (midzonal hepatocytes; right lobe): 162.6 +/- 48.9 uM^3 | Organelle volume in average midzonal hepatocytes, Microbodies, Right (midzonal hepatocytes; right lobe): 173.8 +/- 39.6 uM^3 | Organelle volume in average midzonal hepatocytes, Mitochondria, Right (midzonal hepatocytes; right lobe): 1429.5 +/- 331.2 uM^3
